The source of these data is US9085555B2, “Complement pathway modulators and uses thereof” (priority 2011, dated 2015).

The experiment has as its target Factor D (Homo sapiens (Human), UniProt P00746). As to the kind of experiment: biochemical. In kind it is biochemical.

SMILES strings stand for the structures. Counter-ions that a name gives are not always drawn. Like-named read-outs stand apart in the source and are kept apart here.

Chain of Factor D (P00746 26-253): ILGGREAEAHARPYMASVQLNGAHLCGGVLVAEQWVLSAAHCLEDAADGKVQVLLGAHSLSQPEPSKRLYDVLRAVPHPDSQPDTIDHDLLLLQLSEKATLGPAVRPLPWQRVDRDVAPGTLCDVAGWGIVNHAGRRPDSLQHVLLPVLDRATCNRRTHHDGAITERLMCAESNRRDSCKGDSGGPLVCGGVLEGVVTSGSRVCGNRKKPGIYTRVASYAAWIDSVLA

On to `CC(=O)c1cn(CC(=O)N2[C@@H]3C[C@@H]3C[C@H]2C(=O)NCc2cccc(Cl)c2F)c2ccc(C(=O)O)cc12` [Example 603, 3-Acetyl-1-{2-[(1R,3S,5R)-3-(3-chloro-2-fluoro-benzylcarbamoyl)-2-aza-bicyclo[3.1.0]hex-2-yl]-2-oxo-ethyl}-1H-indole-5-carboxylic acid], for which, under “read-out: IC50”, the IC50 was determined as 1610 nM.

Regarding `CC(=O)c1cn(CC(=O)N2C[C@H](F)C[C@H]2C(=O)NCc2cccc(Cl)c2F)c2cc(CO)ccc12` [Example 604, (2S,4R)-1-[2-(3-Acetyl-6-hydroxymethyl-indol-1-yl)-acetyl]-4-fluoro-pyrrolidine-2-carboxylic acid 3-chloro-2-fluoro-benzylamide], the half-maximal inhibitory concentration (IC50) (read-out: IC50) stood at 37 nM. With `CC(=O)c1cn(CC(=O)N2C[C@H](F)C[C@H]2C(=O)NCc2cc(C(=O)O)cc(Cl)c2F)c2ccccc12` [Example 605, 3-[({(2S,4R)-1-[2-(3-Acetyl-indol-1-yl)-acetyl]-4-fluoro-pyrrolidine-2-carbonyl}-amino)-methyl]-5-chloro-4-fluoro-benzoic acid], the 50% inhibitory concentration (IC50) (read-out: IC50) was determined as 54 nM. As to `CC(=O)c1cn(CC(=O)N2[C@@H]3C[C@@H]3C[C@H]2C(=O)NCc2cc(C(=O)O)cc(Cl)c2F)c2ccccc12` [Example 606, 3-[({(1R,3S,5R)-2-[2-(3-Acetyl-indol-1-yl)-acetyl]-2-aza-bicyclo[3.1.0]hexane-3-carbonyl}-amino)-methyl]-5-chloro-4-fluoro-benzoic acid], the 50% inhibitory concentration (IC50) (read-out: IC50) was 14 nM.

For `CC(=O)c1cn(CC(=O)N2C[C@@](F)(CN)C[C@H]2C(=O)NCc2cccc(Cl)c2F)c2ccccc12` [Example 607, (2S,4S)-1-[2-(3-Acetyl-indol-1-yl)-acetyl]-4-aminomethyl-4-fluoro-pyrrolidine-2-carboxylic acid 3-chloro-2-fluoro-benzylamide], the concentration for half-maximal inhibition (IC50) (read-out: IC50) stood at 28 nM. As for `CN[C@H]1C[C@@H](C(=O)NCc2cccc(Cl)c2F)N(C(=O)Cn2cc(C(C)=O)c3ccccc32)C1` [Example 608, (2S,4S)-1-[2-(3-Acetyl-indol-1-yl)-acetyl]-4-methylamino-pyrrolidine-2-carboxylic acid 3-chloro-2-fluoro-benzylamide], the IC50 (read-out: IC50) was determined as 1840 nM. Still for that read-out and setting: under `COCCN[C@H]1C[C@@H](C(=O)NCc2cccc(Cl)c2F)N(C(=O)Cn2cc(C(C)=O)c3ccccc32)C1` [Example 609, (2S,4S)-1-[2-(3-Acetyl-indol-1-yl)-acetyl]-4-(2-methoxy-ethylamino)-pyrrolidine-2-carboxylic acid 3-chloro-2-fluoro-benzylamide] stands 1560 nM; under `CC(=O)c1cn(CC(=O)N2[C@H](C(=O)NCc3cccc(Cl)c3F)C[C@@]3(CO)C[C@@H]23)c2ccccc12` [Example 611, (1R,3S,5S)-2-[2-(3-Acetyl-indol-1-yl)-acetyl]-5-hydroxymethyl-2-aza-bicyclo[3.1.0]hexane-3-carboxylic acid 3-chloro-2-fluoro-benzylamide], 141 nM.

As to `CC(=O)c1cn(CC(=O)N2C[C@@H]3C[C@@H]3[C@H]2C(=O)N[C@H](CO)c2cccc(Cl)c2F)c2ccccc12` [Example 612, (1S,2S,5R)-3-[2-(3-Acetyl-indol-1-yl)-acetyl]-3-aza-bicyclo[3.1.0]hexane-2-carboxylic acid [(S)-1-(3-chloro-2-fluoro-phenyl)-2hydroxy-ethyl]-amide], the IC50 (read-out: IC50) was found to be 3430 nM. The same measure, in the same setting: under `CC(=O)c1cn(CC(=O)N2[C@@H]3C[C@@H]3C[C@H]2C(=O)N[C@H](CO)c2cccc(Cl)c2F)c2ncccc12` [Example 613, (1R,3S,5R)-2-[2-(3-Acetyl-pyrrolo[2,3-b]pyridin-1-yl)-acetyl]-2-aza-bicyclo[3.1.0]hexane-3-carboxylic acid [(S)-1-(3-chloro-2-fluoro-phenyl)-2-hydroxy-ethyl]-amide] stands 215 nM. In the case of `CC(=O)c1cn(CC(=O)N2C[C@](C)(F)C[C@H]2C(=O)N[C@H](CO)c2cccc(Cl)c2F)c2ncccc12` [Example 614, (2S,4R)-1-[2-(3-Acetyl-pyrrolo[2,3-b]pyridin-1-yl)-acetyl]-4-fluoro-4-methyl-pyrrolidine-2-carboxylic acid [(S)-1-(3-chloro-2-fluoro-phenyl)-2-hydroxy-ethyl]-amide], the 50% inhibitory concentration (IC50) (read-out: IC50) was determined as 245 nM.

In the case of `CC(=O)c1cn(CC(=O)N2[C@@H]3C[C@@H]3C[C@H]2C(=O)NCc2cccc(Cl)c2F)c2ccc(C(=N)N(C)C)cc12` [Example 615, (1R,3S,5R)-2-{2-[3-Acetyl-5-(N,N-dimethyl-carbamimidoyl)-indol-1-yl]-acetyl}-2-aza-bicyclo[3.1.0]hexane-3-carboxylic acid 3-chloro-2-fluoro-benzylamide], the IC50 (read-out: IC50) is 42 nM.

For the compound `CC(=O)c1cn(CC(=O)N2[C@@H]3C[C@@H]3C[C@H]2C(=O)NCc2cccc(Cl)c2F)c2cc(C(=N)N(C)C)ccc12` [Example 616, (1R,3S,5R)-2-{2-[3-Acetyl-6-(N,N-dimethyl-carbamimidoyl)-indol-1-yl]-acetyl}-2-aza-bicyclo[3.1.0]hexane-3-carboxylic acid 3-chloro-2-fluoro-benzylamide], the IC50 (read-out: IC50) turned out to be 123 nM. The same measure, in the same setting: under `CC(=O)c1cn(CC(=O)N2C[C@H](F)C[C@H]2C(=O)NCc2cccc(Cl)c2F)c2cc(-c3nnn[nH]3)ccc12` [Example 617, (2S,4R)-1-{2-[3-Acetyl-6-(1H-tetrazol-5-yl)-indol-1-yl]-acetyl}-4-fluoro-pyrrolidine-2-carboxylic acid 3-chloro-2-fluoro-benzylamide] stands 28 nM. Consider `CC(=O)c1cn(CC(=O)N2[C@@H]3C[C@@H]3C[C@H]2C(=O)NCc2cccc(Cl)c2F)c2cc(-c3nnn[nH]3)ccc12` [Example 618, (1R,3S,5R)-2-{2-[3-Acetyl-6-(1H-tetrazol-5-yl)-indol-1-yl]-acetyl}-2-aza-bicyclo[3.1.0]hexane-3-carboxylic acid 3-chloro-2-fluoro-benzylamide], for which the half-maximal inhibitory concentration (IC50) (read-out: IC50) worked out at 39 nM. For the compound `[2H]C([2H])([2H])C(=O)c1cn(CC(=O)N2C[C@H](F)[C@@H](OC)[C@H]2C(=O)NCc2cccc(Cl)c2F)c2ccccc12` [Example 619, (2S,3S,4S)-1-[2-(3-Acetyl-d3-indol-1-yl)-acetyl]-4-fluoro-3-methoxy-pyrrolidine-2-carboxylic acid 3-chloro-2-fluoro-benzylamide], the half-inhibitory concentration (IC50) amounted to 14 nM.

In the case of `[2H]C([2H])([2H])O[C@H]1[C@@H](C(=O)NCc2cccc(Cl)c2F)N(C(=O)Cn2cc(C(C)=O)c3ccccc32)C[C@@H]1F` [Example 620, (2S,3S,4S)-1-[2-(3-Acetyl-indol-1-yl)-acetyl]-4-fluoro-3-methoxy-d3-pyrrolidine-2-carboxylic acid 3-chloro-2-fluoro-benzylamide], inhibition was half-maximal at 17 nM (IC50). On to `CC(=O)c1nc(CC(=O)N2[C@@H]3C[C@@H]3C[C@H]2C(=O)NCc2cccc(Cl)c2F)n2ccccc12` [Example 621, (1R,3S,5R)-2-[2-(1-Acetyl-imidazo[1,5-a]pyridin-3-yl)-acetyl]-2-aza-bicyclo[3.1.0]hexane-3-carboxylic acid 3-chloro-2-fluoro-benzylamide], for which the 50% inhibitory concentration (IC50) (read-out: IC50) amounted to 19 nM.

For `CC(=O)c1cn(CC(=O)N2[C@H](CNC(=O)Oc3cccc(Cl)c3F)C[C@H]3C[C@H]32)c2ccccc12` [Example 622, {(1R,3S,5R)-2-[2-(3-Acetyl-indol-1-yl)-acetyl]-2-aza-bicyclo[3.1.0]hex-3-ylmethyl}-carbamic acid 3-chloro-2-fluoro-phenyl ester], where the note is “read-out: IC50”, the IC50 was 5600 nM. Still for that read-out and setting: next, `CC(=O)c1nn(CC(=O)N2C[C@H](F)C[C@H]2C(=O)NCc2cccc(Cl)c2F)c2cnccc12` [Example 623, (2S,4R)-1-[2-(3-Acetyl-pyrazolo[3,4-c]pyridin-1-yl)-acetyl]-4-fluoro-pyrrolidine-2-carboxylic acid 3-chloro-2-fluoro-benzylamide formate]: 24 nM; `CO[C@H]1[C@@H](C(=O)N[C@H](C)c2cccc(Cl)c2F)N(C(=O)Cn2nc(C(C)=O)c3cccnc32)C[C@@H]1F` [Example 624, (2S,3S,4S)-1-[2-(3-Acetyl-pyrazolo[3,4-b]pyridin-1-yl)-acetyl]-4-fluoro-3-methoxy-pyrrolidine-2-carboxylic acid [(R)-1-(3-chloro-2-fluoro-phenyl)-ethyl]-amide]: 26 nM.

As to `CC(=O)c1nn(CC(=O)N2C[C@@H]3C[C@@H]3[C@H]2C(=O)NCc2cccc(Cl)c2F)c2cnc(C)cc12` [Example 625, (1S,2S,5R)-3-[2-(3-Acetyl-5-methyl-pyrazolo[3,4-c]pyridin-1-yl)-acetyl]-3-aza-bicyclo [3.1.0]hexane-2-carboxylic acid 3-chloro-2-fluoro-benzylamide], the concentration for half-maximal inhibition (IC50) (read-out: IC50) was 19 nM. Same read-out and setting: next, `CC(=O)c1nn(CC(=O)N2C[C@H](F)C[C@H]2C(=O)NCc2cccc(Cl)c2F)c2cnc(C)cc12` [Example 626, (2S,4R)-1-[2-(3-Acetyl-5-methyl-pyrazolo[3,4-c]pyridin-1-yl)-acetyl]-4-fluoro-pyrrolidine-2-carboxylic acid 3-chloro-2-fluoro-benzylamide]: 36 nM.

With `CC(=O)c1nn(CC(=O)N2[C@@H]3C[C@@H]3C[C@H]2C(=O)NCc2cccc(Cl)c2F)c2cnccc12` [Example 627, (1R,3S,5R)-2-[2-(3-Acetyl-pyrazolo[3,4-c]pyridin-1-yl)-acetyl]-2-aza-bicyclo [3.1.0]hexane-3-carboxylic acid 3-chloro-2-fluoro-benzylamide], the IC50 (read-out: IC50) is 16 nM. The same measure, in the same setting: under `CO[C@H]1[C@@H](C(=O)Nc2cccc(OC(F)(F)F)c2F)N(C(=O)Cn2nc(C(N)=O)c3ccccc32)C[C@@H]1F` [Example 628, 1-{2-[(2S,3S,4S)-4-Fluoro-2-(2-fluoro-3-trifluoromethoxy-phenylcarbamoyl)-3-methoxy-pyrrolidin-1-yl]-2-oxo-ethyl}-1H-indazole-3-carboxylic acid amide] stands 38 nM; under `CO[C@H]1[C@@H](C(=O)Nc2cccc(OC(F)(F)F)c2F)N(C(=O)Cn2nc(C(N)=O)c3ccncc32)C[C@@H]1F` [Example 629, 1-{2-[(2S,3S,4S)-4-Fluoro-2-(2-fluoro-3-trifluoromethoxy-phenylcarbamoyl)-3-methoxy-pyrrolidin-1-yl]-2-oxo-ethyl}-1H-pyrazolo[3,4-c]pyridine-3-carboxylic acid amide trifluoroacetate], 17 nM.

The term IC50 denotes the midpoint of a concentration-inhibition curve.
